Test results taken from patent publication US7550469B2, “Heterocyclic amide derivatives and their use as dopamine D3 receptor ligands” (Aventis Pharmaceuticals Inc., priority 2001, dated 2009).

What was measured:
[1] = target: T1, cloned human alpha-1A adrenergic receptors (α1a) (Homo sapiens, UniProt P35348); assay: [3H]Prazosin binding to cloned human alpha-1A adrenergic receptors expressed in CHO cells; settings: human α-1; 6-fluoro vs 6-trifluoromethyl benzo[b]thiophene pairs; read-out: halpha 1 Ki (nM) h = human
T1 construct: expressed in transfected cells; host or cells: CHO cells, G418-resistant clone, pcDNA3 vector; membrane fragments
T1 sequence (P35348 1-466): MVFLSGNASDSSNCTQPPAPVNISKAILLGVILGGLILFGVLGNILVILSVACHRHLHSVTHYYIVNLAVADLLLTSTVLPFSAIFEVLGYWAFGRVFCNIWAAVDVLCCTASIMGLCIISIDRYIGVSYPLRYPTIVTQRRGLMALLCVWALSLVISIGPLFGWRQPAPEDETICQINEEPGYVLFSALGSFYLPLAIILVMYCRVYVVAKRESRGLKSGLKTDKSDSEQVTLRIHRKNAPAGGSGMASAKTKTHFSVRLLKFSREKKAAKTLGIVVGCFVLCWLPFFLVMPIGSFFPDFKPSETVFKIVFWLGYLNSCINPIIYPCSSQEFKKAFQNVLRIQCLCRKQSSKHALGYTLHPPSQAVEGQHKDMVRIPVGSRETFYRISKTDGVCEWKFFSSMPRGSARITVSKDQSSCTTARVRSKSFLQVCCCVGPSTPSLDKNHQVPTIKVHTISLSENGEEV
Text: ^3H]PRAZOSIN BINDING TO CLONED HUMAN ALPHA-1A ADRENERGIC RECEPTORS (α1a) EXPRESSED IN CHINESE HAMSTER OVARY CELLS (CHO)
Purpose: This in vitro assay is designed as a screen to identify compounds displaying a affinity for the human α1a adrenoceptor subtype expressed in the membrane fragments of CHO cells. The assay measures the ability of the test compounds to displace [^3H] prazosin from α1a sites. • The identification of multiple vascular α1-addrenoceptors (α1a, α1b, α1d) in vitro has provided impetus to define the role(s) of these subtypes in cardiovascular regulation in vivo (Vargas and Gorman, 1995). […] Prazosin is a potent antagonist of the human α1a-adrenoceptor subtype, which has been cloned and is expressed in the membrane fragments of CHO cells. hα1a Receptor: The cloning of the human α1a cDNA was accomplished first by screening a human prostate cDNA library (Clontech), from which a portion of the coding region was obtained. This DNA fragment was then used to screen a human leukocyte genomic library (Clontech), and the rest of the coding sequence was obtained. Later these two fragments were spliced together. The entire coding sequence was then fully sequenced including matching PCR sequence with original genomic coding sequence, thus ensuring splice sites were joined correctly (Schwinn et al., 1995). Once sequenced, the gene was subcloned into the expression vector pcDNA3 (Invitrogen). Plasmid DNA was then used for transfection into CHO cells and G418 resistant clones were isolated. A clone expressing high levels of the hα1a receptor (as determined by mRNA and receptor binding data) was chosen and pharmacologically characterized. Culture Media: Media Ingredients for Adherent α1a expressing CHO Culture: • A. HAM's F-12 (Cellgro) • B. 10% 0.2 micron filtered Fetal Bovine Serum (FBS)(Cellgro) • C. 1% 0.2 micron filtered Penicillin-Streptomycin (Celigro) • D. G418 0.2 micron filtered (Geneticin 400 μg/ml)(Cellgro) • Cells are cultured using established methods and procedures in either 150×25 mm culture plates (scale up to 100 plates) or a combination of these plates and 70 roller bottles. One culturing/harvest cycle typically requires 2 weeks and yields between 100-400 mg protein. Plates or bottles are incubated at 37° C.+5% CO2. Storage: Cells are harvested by mechanical scraping, washed using PBS, collected in 250 ml Corning polypropylene centrifuge tubes, spun down (1500RPM) and resuspended in dH2O 10% DMSO (final volume per harvest is approximately 50 ml). Protein determination is made using the Biorad DC Assay Kit. Finally, the appropriate volume is aliquoted into a 2 ml Corning Cryovial (10 mg/1-1.5 ml) which is stored at −80° C. Current Lot Data:
Assay Requirement: 0.5 cryovials per 96 well plate (assay volume=200 μl/well) [^3H]-Ligand: [7-methoxy-^3H]-Prazosin: 1.0 nM (NEN, NET-823) • 70-87 Ci/mmol Materials: Phentolamine mesylate (Research Biochemicals Int. #P-131) • 96 well flat bottom plates (Beckman) • Unifilter GF/B Plate (Packard) • Polyethylenimine (Sigma #P-3134) • TomTec or Packard Filtermate 196 Cell Harvesters • Packard TopCount Scintillation Counter Buffers: A: 50 mM Tris HCl; 0.1% ascorbate, pH 7.7 (incubation buffer) • B: 50 mM Tris HCl; pH 7.7 (wash buffer) Procedure: Assay additions are as follows (in the order indicated): • Total Binding=50 μl buffer A+50 μl [^3H]prazosin+100 μl membrane • Nonsp. Bd.=50 μl 10 μM phentolamine+50 μl [^3H]prazosin+100 μl membrane • Test Cpd.=50 μl compound+50 μl [^3H]prazosin+100 μl membrane • Compounds to be evaluated are weighed out to yield a 10 mM stock solution in DMSO in a 24 well polystyrene plate. This is diluted to a 0.5 mM stock in dH2O. Serial dilutions in Buffer A are made from which 50 μl additions to the plate are made in duplicate in order to achieve the final concentrations desired. Typically, one 96 well plate is used to evaluate 11 compounds at 4 concentrations (10^−6-10^−9 M) in duplicate. […]

Which Ki [1] does the source give for `O=C(NCCCCN1CCN(c2csc3cc(F)ccc23)CC1)c1ccc(-c2ccccc2)cc1` [813585A] here?
The Ki was 5.67 nM.

With `Cl.c1cc2onc(C3CCNCC3)c2s1` as the molecule, how does the melting point read?
The melting point was 263 to 265 °C.
